Read-outs that look alike come from different tables or passages of the source.
What was measured:
HUVEC = assay: Endothelial cell migration assay
[1] = tested on: human tumour cell line A431 (epithelial carcinoma); assay: Tumour cell proliferation assay (methylene blue)
[2] = tested on: Human umbilical vein endothelial cells (HUVEC); details: 30 μM
[3] = tested on: Human umbilical vein endothelial cells (HUVEC); assay: cells
[4] = tested on: bFGF induced angiogenesis; assay: Growth factor impregnated subcutaneous chamber implant angiogenesis model in mice (bFGF); type: in vivo; details: 1, 10 and 100 μg/kg/day s.c., chambers removed 5 days after implantation
Description: (§1) Effect of Zoledronic Acid on Angiogenesis Induced by Growth Factor Impregnated, Subcutaneous Implants in Mice
(§2) Female mice (Tiflbm:MAG ) weighing 17 to 20 g were used. They were identified via ear markings and kept in groups (6 animals per cage) under normal conditions and observed daily. Six mice were used per treatment group in each experiment. All experiments were performed at least twice.
(§3) Porous tissue chambers made of perfluoro-alkoxy-Teflon (Teflon®-PFA, 21 mm×8 mm diameter, 550 μl volume) and perforated with 80 regularly spaced 0.8 mm holes were used. Both ends were sealed with removable caps of the same material. Four to six chambers were inserted in a silicon tube (12 mm diameter). […]
(§4) Five days after implantation, animals were anaesthetized (3% isoflurane) and sacrificed using an overdose of pentobarbitone (210 mg/kg i.p., Vetanarcol, Veterinaria AG, Zürich, Switzerland). Chambers were then taken out of the animal, the vascularized fibrous tissue that had formed around each implant was carefully removed, weighed and the total amount of blood was quantified by colorimetric determination of the haemoglobin concentration.
(§5) After addition of 2 ml of distilled water, tissue samples were homogenised for 1 min at 24000 rpm (Ultra Turrax T25). […] The absorbance at 540 mn (Uvikon 810 P) is proportional to the haemoglobin concentration. […]

[5] = tested on: VEGF induced angiogenesis; assay: Growth factor impregnated subcutaneous chamber implant angiogenesis model in mice (VEGF); type: in vivo; details: highest dose tested, 100 μg/kg/day s.c.
Description: as §1, §2, §3, §4, §5

## O=C(O)CN(CCN(CC(=O)O)CC(=O)O)CC(=O)O [EDTA]
HUVEC
  effect on HUVEC migration: no consistent effects
[1]; 30 μM
  inhibition of A431 proliferation: 8.8%
[1]; tested dose range
  effect on A431 proliferation in the tested dose range: no significant effect
[2]; FCS
  inhibition of HUVEC proliferation induced by FCS: 23.7%
[2]; VEGF
  inhibition of HUVEC proliferation induced by VEGF: 55.6%
[2]; bFGF
  inhibition of HUVEC proliferation induced by bFGF: 49.5%

## O=P(O)(O)C(O)(Cn1ccnc1)P(=O)(O)O [Zoledronate, 1-hydroxy-2-(imidazol-1-yl)ethane-1,1-diphosphonic acid]
HUVEC; 30 μM
  effect on HUVEC migration: completely inhibited
HUVEC; concentrations of up to 10 μM, basal medium, serum or VEGF
  effect on HUVEC migration: stimulated HUVEC migration
[1]; Homo sapiens, A-431, 72 h, read-out: IC50, proliferation of A431
  IC50: 1.35 µM
[3]; read-out: IC50, VEGF-induced HUVEC proliferation
  IC50: 6.9 ± 0.4 µM
[3]; read-out: IC50, bFGF-induced HUVEC proliferation
  IC50: 4.2 ± 0.4 µM
[3]; read-out: IC50, serum-induced HUVEC proliferation
  IC50: 4.1 ± 0.6 µM

## O=P(O)(O)C(O)(Cn1ccnc1)P(=O)(O)O [Zoledronic acid, 1-hydroxy-2-(imidazol-1-yl)ethane-1,1-diphosphonic acid]
[4]; blood content
  approximate IC50, inhibition of bFGF-induced angiogenic response measured by blood content: ~3.1 µg/kg
[4]; tissue weight
  approximate IC50, inhibition of bFGF-induced angiogenic response measured by weight: ~2.5 µg/kg
[5]
  inhibition of the VEGF-induced increase in blood content: significant inhibition
  inhibition of the VEGF-induced increase in weight: not in weight

From patent US20020142996A1, “Use of bisphosphonic acids for treating angiogenesis” (priority 1999, published 2002)
